According to a melting point compilation (Tetko et al.; mined from patent text by program, amines drawn as free bases though some values may be those of a salt):

melting point [°C]	Compound
133 to 135	CCCc1oc(C)cc(=O)c1C(=O)Nc1cccc(C)c1C
54	Cc1ccc2c(c1)[C@H]1Cc3ccccc3[C@H]1N2C (relative stereo)
99 to 100	CN(C)C=Nc1ncc(I)c(Cl)n1
58	Nc1ccc(F)c(Cl)c1F
139 to 140	CC(C)(C)n1nnc(Cc2ccc(C(=O)O)cc2)n1
127 to 129	CC(C)(C)C(O)(COc1ccccc1)c1cncnc1 (centres undefined)
142 to 144	Cn1c(=O)oc2cc(CCO)cnc21
131 to 132	CCOC(=O)C(C#N)=Cc1c(Cl)n(C)c2ccccc12
162 to 164	CS(=O)c1nnc(Sc2cc(C(C)(C)C)c(O)c(C(C)(C)C)c2)s1 (centres undefined)
181 to 184	CCCOc1ccccc1C(=O)Nc1ncccc1C(N)=O
83 to 87	CCc1cnc(C2=NC(C)(C(C)C)C(=O)N2)c(C(=O)OC(C)CC)c1 (centres undefined)
192 to 195	COC(=O)c1nc(-c2ccc(Cl)c(OC)c2F)nc(O)c1Br
160	Cc1nn(C)c(=O)n1-c1ccc(N)cc1
170 to 172	O=C(/C=C/c1cccnc1)NCCc1ccccc1O
48	Clc1ncccc1-c1ccccc1
269	COc1ccc(C(C)=Nc2ccc(C3=NNC(=O)CC3)cc2)c(O)c1
82 to 83	CCCCNc1c(N)c(N)nc(C)c1C(=O)OCC
64 to 65	COC(=O)c1cc(OCc2ccc3ccccc3n2)nn1C(C)C
59 to 61	CCOC(=O)/C=C/c1ccc(OS(=O)(=O)C(F)(F)F)c(Cl)c1
105 to 106	Cc1ccnc(C)c1O
195 to 196	Cc1cc(C)nc(NC(=O)NS(=O)(=O)c2ccccc2OS(=O)(=O)N(C)C)n1
235	CC1=CC(c2cccc(Cl)c2Cl)C(c2nnco2)=C(C)N1 (centres undefined)
194 to 196	CC(=O)c1ccc(Nc2cc(C)nc(N)n2)cc1

Second part, the compound before the results:

Compound	melting point [°C]
Cc1cc(O)c(C2CCCCC2)cc1Sc1cc(C2CCCCC2)c(O)cc1C	128 to 130
O=C1NC(=O)C(=Cc2ccc(C(=O)CCc3ccccc3)cn2)S1	> 250
O=[N+]([O-])c1cc(F)ccc1S(=O)(=O)c1ccccc1	127 to 129
O=C(c1cccnc1)c1cc(-c2ccncc2)c(N2CCOCC2)s1	124
COC(=O)CCCc1cc2nc(C(F)(F)F)ccc2n1S(=O)(=O)c1ccc(Cl)cc1	97
CC(=O)OCCn1nc(-c2cc(C(C)(C)C)c(O)c(C(C)(C)C)c2)c2ccc(C(C)C)nc21	121 to 122
CCOC(=O)c1cc(C)n(-c2cccc(C(N)=O)c2)c1-c1ccccc1	209 to 210
CC(C)(C)c1nn(-c2cc(F)c(C#N)cc2F)c(=O)o1	137
Nc1ccc(Cl)nc1Nc1ccc2c(c1)OCO2	162 to 163
CC1CCN(CCNc2nn3cnnc3c3c2CCCC3)CC1	180 to 181
Cn1c(Sc2cc(C(F)(F)F)ccc2C#N)n[nH]c1=O	182
O=[N+]([O-])c1ccc(OCC(COc2ccc([N+](=O)[O-])cc2)(COc2ccc([N+](=O)[O-])cc2)COc2ccc([N+](=O)[O-])cc2)cc1	274 to 282
O=S(=O)(c1ccccc1)c1cc[nH]c1-c1ccc(Cl)cc1	158 to 159
CS(=O)(=O)c1ccc(C(CC2CCOCC2)c2ccc(-c3nnc(CO)s3)[nH]2)cc1 (centres undefined)	199 to 201
CN1C(=O)CC=C2c3ccc(Cl)cc3CCC21 (centres undefined)	99
O=C1C(=O)c2ccccc2C2=C1SCC1(CCN(C(=O)c3cccc(C(F)(F)F)c3)CC1)O2	165 to 166
CC(=O)N(C)c1cc(-c2ccnc3c(C(=O)c4cccs4)cnn23)ccc1Cl	191 to 193
CCOC(=O)C1=C(Nc2ccccc2)CN(C(=O)c2ccccc2)C1	149 to 151
C=C(C(=O)c1ccc(Cl)cc1)c1ccccc1	42
CC(C)C(=O)Nc1cccc(N(CCO)CCO)c1	120 to 122
C=C1N(CCCC)C(=O)OC12CCN(CCC=C(c1ccc(F)cc1)c1ccc(F)cc1)CC2	92 to 93
O=C(O)CCC(CSc1ccc2ccccc2c1)C(=O)O (centres undefined)	140 to 142
O=C1COCC2CCCN12 (centres undefined)	63.5 to 66
Cc1nc2c(n1Cc1ccccc1)CCCC2=O	115
Cc1nnc(O[Si](C)(C)C)nc1O[Si](C)(C)C	43
CC(C)(O)Cn1c(COCc2ccccc2)nc2c(N)nc3ccccc3c21	196 to 198

Compound	melting point [°C]
CCCCCCCCCCc1ccc(C(=O)c2cc(Br)c(C(=O)c3ccc(CCCCCCCCCC)cc3)cc2Br)cc1	128 to 129
CCN(CC)c1ccc(C=CC2=NC(C#N)=C(C#N)N=CC2)cc1	> 300
CCCCCCCCOc1ccc(-c2ncc(O)cn2)c(F)c1F	84 to 85
CCC(O)(c1ccc(OCCN(C)C)cc1)c1cccc(Cl)c1 (centres undefined)	108 to 109
CN1C(=O)C2CN(Cc3ccncc3)CCN2c2ccccc21 (centres undefined)	252 to 254
N#CCc1ccc(OCCCN2CCN(C34CC5CC(CC(C5)C3)C4)CC2)cc1	136 to 138
COC(=O)C1CN(Cc2cccnc2)C(=O)C(=C2SC=CS2)C1=O (centres undefined)	111 to 114
CCn1c(=O)c(-c2cccs2)cc2cnc(Nc3ccccc3)nc21	223 to 225
O=C1NCCCCC1Cc1ccccc1 (centres undefined)	99 to 104
COc1nc(C(F)(F)F)cc(=O)n1-c1cc(O)c(Cl)cc1F	147 to 149
CCOC(=O)C1=C(C#N)NC(C)=C(C(=O)OCCN(CC)CC)C1c1cccc([N+](=O)[O-])c1 (centres undefined)	150 to 152
COc1ccc(N2C3CCC2CC(=O)C3)cc1	133 to 134
CN1CCN(C2CCCc3nc4ccccc4c(N)c32)CC1 (centres undefined)	200 to 202
CC(C)(C)C1C=C(Cn2nc(-c3ccccc3-c3nn(CC4=CC(C(C)(C)C)C(O)(C(C)(C)C)C=C4)c(=O)o3)oc2=O)C=CC1(O)C(C)(C)C (centres undefined)	220
Cn1c2ccc(OCc3ccccc3)cc2c2c(CC(=O)N3CCCC3)nn(-c3ccccc3)c(=O)c21	203 to 204
Cc1cc(C)cc(N(CCO)Cc2ccc3nc(NCCCN4CCOCC4)n(Cc4nc(C)ccc4O)c3c2)c1	180
Cn1cc(-c2ncc(OC3SCC(O)C(O)C3O)cc2F)cn1 (centres undefined)	206
CC(C)N(CCC(CCN(C(C)C)C(C)C)(C(N)=O)c1ccccc1)C(C)C	102 to 103
ClCc1ccc(OCc2coc(-c3ccccc3)n2)cc1	129 to 130
CC(C)NC(=S)N1CCc2[nH]cnc2C1C(C)C (centres undefined)	203
O=c1ccc2c(C(F)(F)F)cc(C(F)(F)F)nc2[nH]1	182 to 184
CCOC(=O)c1cc(Oc2ccc(C(F)(F)F)cc2Cl)ccc1[N+](=O)[O-]	156 to 160
CCC(C(=O)O)N(C(=O)c1cn(-c2ccc(F)cc2F)nc1C)c1ccc(OCC(C)(C)C)c(C#N)c1 (centres undefined)	110
Nc1cccc2c1-c1nc3ccccc3cc1CC2	138 to 140
N#Cc1cc(N)ccc1N1CCCCC1	148 to 149
